# Patent US10568937B2, “Formulations of abaloparatide, transdermal patches thereof, and uses thereof” (priority 2016, dated 2020)
# Tests used:
# [1] = test system: rat femur fracture model; assay: Rat femur fracture model, fracture healing; type: in vivo
# Source text: Certain embodiments of the methods disclosed herein also include the use of the microprojection arrays as described herein in their various embodiments to accelerate fracture healing in a patient who has suffered one or more fractures and for which the fractures are not completely healed. Healing of bone fractures (eg long bone fractures) involves endochondral and intramembranous bone formation, which together form a callus that achieves union, stabilization, and gradual recovery of bone strength. […] Sixteen rats from each group were necropsied after 4 and 6 weeks of healing, with 12 fractured femurs per group used for micro-CT and biomechanical testing and the other 4 femurs used for micro-CT and histology.
# [2] = test system: ovariectomy-induced osteopenic rats and monkeys; settings: cited from earlier work
# [3] = Subcutaneous 80 μg abaloparatide versus placebo: fractures, BMD, TBS; type: in vivo; settings: subcutaneous administration
# Experimental: In certain embodiments, the abaloparatide-SC treatment comprises subcutaneous administration of an aqueous formulation comprising abaloparatide (about 2 mg/mL) in an acetate buffer, with a pH of about 4.5 to about 5.6, or about 5.1. Optionally, the aqueous formulation further comprises phenol (about 5 mg/mL). In certain examples of these embodiments, the acetate buffer comprises tri-hydrate sodium acetate (about 5 mg/mL) with pH (e.g., about 4.5 to about 5.6, or about 5.1) adjusted with acetic acid. Unless specifically stated otherwise, comparative abaloparatide sc dose use an 80 μg dose delivered subcutaneously to the periumbilicular region of the abdomen of the patient.
substance,measurement,setting,value
"[Glu^22,25, Leu^23,28,31, Aib^29, Lys^26,30]hPTHrP(1-34)NH2 [abaloparatide]","callus stiffness, higher vs VEH","[1]; 5 ug/kg/d, week 4, three-point bending",60%
same,"callus stiffness, higher vs VEH","[1]; 5 ug/kg/d, week 6",112%
same,"callus peak load, higher vs VEH","[1]; 25 ug/kg/d, week 4",77%
same,"callus stiffness, higher vs VEH","[1]; 25 ug/kg/d, week 4, three-point bending",96%
same,callus area (histomorphometry),"[1]; 5 and 25 ug/kg/d, week 4, vs VEH",significantly greater callus area
same,"callus bone volume, bone volume fraction, and BMC (micro-CT)","[1]; 5 and 25 ug/kg/d, weeks 4 and 6, vs VEH",significantly greater
same,cortical bridging across the fracture gap (semi-quantitative histologic scoring),"[1]; 5 or 25 ug/kg/d sc daily, week 4, vs VEH",significantly greater bridging
same,callus peak load vs VEH,"[1]; both abaloparatide groups, week 6",numerically higher
same,bone loss,[2],complete reversal of bone loss
same,"BMD and/or TBS at the lumbar spine, total hip, and femoral neck",[3],improve
